Measured values from ChEMBL document CHEMBL1201862, “PubChem BioAssay data set” (2004).
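All cell lines were grown in 96-well plates and treated with compound for 48 hours. Here, GI50 denotes the concentration required for 50% inhibition of growth.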 The source made the active and inactive calls. No stated cut-off is given here; in the data, active = GI50 up to about 1.1 µM and inactive = higher.

Key:
Assay in all cases: DTP human tumour cell line panel, 48 h
[1] = system: K562
[2] = system: KM12
[3] = system: CCRF-CEM
[4] = system: SN12C
[5] = system: SK-MEL-2
[6] = system: A549
[7] = system: OVCAR-5
[8] = system: HOP-92
[9] = system: UACC-62
[10] = system: HCT-15
[11] = system: OVCAR-3
[12] = system: SK-OV-3
[13] = system: UACC-257
[14] = system: COLO 205
[15] = system: U-251
[16] = system: HOP-62
[17] = system: SK-MEL-5
[18] = system: NCI-H226
[19] = system: UO-31
[20] = system: SW-620

SMILES	GI50 [1]	GI50 [2]	GI50 [3]	GI50 [4]	GI50 [5]	GI50 [6]	GI50 [7]	GI50 [8]	GI50 [9]	GI50 [10] [µM]	GI50 [11]	GI50 [12]	GI50 [13]	GI50 [14]	GI50 [15]	GI50 [16]	GI50 [17]	GI50 [18]	GI50 [19]	GI50 [20]
CC(=O)O[C@H]1CC[C@]2(C=O)[C@H]3CC[C@]4(C)[C@@H](C5=CC(=O)OC5)CC[C@]4(O)[C@@H]3CC[C@]2(O)C1 [STROPHANTHIDIN ACETATE]	0.83 µM (active)	0.692 µM (active)	0.0605 µM (active)	0.42 µM (active)	0.324 µM (active)	0.0684 µM (active)	0.575 µM (active)	0.424 µM (active)	0.353 µM (active)	0.203	0.0982 µM (active)	0.222 µM (active)	0.362 µM (active)	0.378 µM (active)	0.296 µM (active)	0.226 µM (active)	0.0923 µM (active)	0.681 µM (active)	0.23 µM (active)	0.264 µM (active)
O=c1c(C(c2ccccn2)c2c(O)oc3cc(O)ccc3c2=O)c(O)oc2cc(O)ccc12	> 100 µM (inactive)	> 100 µM (inactive)	> 100 µM (inactive)	> 100 µM (inactive)	> 100 µM (inactive)	> 100 µM (inactive)	> 100 µM (inactive)	> 100 µM (inactive)	> 100 µM (inactive)	> 100	> 100 µM (inactive)	> 100 µM (inactive)	> 100 µM (inactive)	> 100 µM (inactive)	> 100 µM (inactive)	> 100 µM (inactive)	> 100 µM (inactive)	> 100 µM (inactive)	> 100 µM (inactive)	> 100 µM (inactive)
CCOC(=O)C(C(C)=O)C1CC=CC1 (stereo not given)	> 100 µM (inactive)	> 100 µM (inactive)	> 100 µM (inactive)	> 100 µM (inactive)	> 100 µM (inactive)	> 100 µM (inactive)	> 100 µM (inactive)	> 100 µM (inactive)	> 100 µM (inactive)	> 100	> 100 µM (inactive)	> 100 µM (inactive)	> 100 µM (inactive)	> 100 µM (inactive)	> 100 µM (inactive)	> 100 µM (inactive)	> 100 µM (inactive)	> 100 µM (inactive)	> 100 µM (inactive)	> 100 µM (inactive)
O=C1CCCCN1	> 1120 µM (inactive)	> 1120 µM (inactive)	> 1120 µM (inactive)	> 267 µM (inactive)	> 1120 µM (inactive)	> 1120 µM (inactive)	> 1120 µM (inactive)	> 1120 µM (inactive)	> 411 µM (inactive)	> 1120	> 1120 µM (inactive)	> 150 µM (inactive)	> 1120 µM (inactive)	> 1120 µM (inactive)	> 252 µM (inactive)	> 1120 µM (inactive)	> 1120 µM (inactive)	635 µM (inactive)	> 1120 µM (inactive)	> 1120 µM (inactive)
O=c1[nH]c(=O)n(C2CC(O)C(CO)O2)cc1C#Cc1cc(C(F)(F)F)cc(C(F)(F)F)c1 (stereo not given)	> 100 µM (inactive)	> 30.8 µM (inactive)	> 100 µM (inactive)	> 27.9 µM (inactive)	> 36.9 µM (inactive)	> 24.7 µM (inactive)	> 100 µM (inactive)	33.8 µM (inactive)	> 25.6 µM (inactive)	> 50.7	> 52.1 µM (inactive)	91.2 µM (inactive)	> 37.5 µM (inactive)	> 21.3 µM (inactive)	18 µM (inactive)	> 68.1 µM (inactive)	> 27.4 µM (inactive)	> 100 µM (inactive)	> 30.6 µM (inactive)	> 30.2 µM (inactive)
O=c1cc(-c2nc3ccccc3[nH]2)[nH]c2nc(-c3nc4ccccc4[nH]3)cc(-c3ccc(Cl)cc3)c12	16.1 µM (inactive)	22 µM (inactive)	24.7 µM (inactive)	16.5 µM (inactive)	12.2 µM (inactive)	24.4 µM (inactive)	29 µM (inactive)	5.52 µM (inactive)	14 µM (inactive)	10	19.3 µM (inactive)	15.3 µM (inactive)	23.7 µM (inactive)	12.1 µM (inactive)	16.1 µM (inactive)	24.4 µM (inactive)	15.7 µM (inactive)	16.9 µM (inactive)	11.2 µM (inactive)	21.5 µM (inactive)
